A value given as a limit tells only on which side of the number the result lay.

One data set deals with HT29 colorectal carcinoma. In words: qHTS cell viability screen (Cell Titer Glo), HT29. It counts as cell-based. Particulars: HT29 colorectal carcinoma, 72 hours, cell viability Cell Titer Glo; read-out: CC50 HT29. On the technique in general: Quantitative high-throughput screening tests each substance at several concentrations.
What is called CC50 is the concentration giving 50% cytotoxicity. With `COc1cc(/C=C2/C(C)=C(CNS(=O)(=O)c3ccc(C)cc3)c3cc(F)ccc32)cc(OC)c1OC` [Compound 44], the cytotoxic concentration (CC50) was > 50 µM.

Consider `COc1cc(/C=C2/C(C)=C(CNS(=O)(=O)c3cccc4ccccc34)c3cc(F)ccc32)cc(OC)c1OC` [Compound 45], for which the CC50 was > 50 µM.

On to `COc1cc(/C=C2/C(C)=C(CNS(=O)(=O)c3cccc4c(N(C)C)cccc34)c3cc(F)ccc32)cc(OC)c1OC` [Compound 47], for which the CC50 is > 50 µM.

The data set is the same for the next values; noted with them: Homo sapiens, HT-29, 72 h, HT29 colorectal carcinoma, 72 hours, cell viability Cell Titer Glo; read-out: CC50 HT29.
Consider `CSc1ccc(/C=C2/C(C)=C(CCNCCN(C)C)c3cc(F)ccc32)cc1` [Compound 10], for which the CC50 stood at 1.97 ± 0.18 µM.

Turning to `CC1=C(CCNCc2ccccc2)c2cc(F)ccc2/C1=C\c1ccc([S+](C)[O-])cc1` (stereo not shown) [Compound 11], the CC50 was found to be 15.1 ± 1.42 µM.

Regarding `CC1=C(CCNCc2ccccc2)c2cc(F)ccc2/C1=C\c1ccc(S(C)(=O)=O)cc1` [Compound 12], the CC50 worked out at 3.39 ± 0.28 µM.

For the molecule `CSc1ccc(/C=C2/C(C)=C(CN)c3cc(F)ccc32)cc1` [Compound 16], the CC50 is 16 ± 6.08 µM.

Regarding `COc1cc(/C=C2/C(C)=C(CN)c3cc(F)ccc32)cc(OC)c1OC` [Compound 17], the CC50 turned out to be 14.6 ± 2.42 µM.

Take `CSc1ccc(/C=C2/C(C)=C(CNC(=O)Cc3ccccc3)c3cc(F)ccc32)cc1` [Compound 18]: the CC50 was determined as 3.56 ± 1.25 µM.

Consider `COc1cc(/C=C2/C(C)=C(CNC(C)=O)c3cc(F)ccc32)cc(OC)c1OC` [Compound 28], for which the CC50 is 6.44 ± 1.4 µM.

Take `CCS(=O)(=O)NCC1=C(C)/C(=C/c2ccc(SC)cc2)c2ccc(F)cc21` [Compound 35]: the CC50 stood at 8.33 ± 1.64 µM.

For `CSc1ccc(/C=C2/C(C)=C(CNS(=O)(=O)c3ccccc3)c3cc(F)ccc32)cc1` [Compound 36], the CC50 is 9.94 ± 0.83 µM.

Regarding `CSc1ccc(/C=C2/C(C)=C(CNS(=O)(=O)c3cccc4ccccc34)c3cc(F)ccc32)cc1` [Compound 38], the CC50 was 17 ± 3.73 µM.

Turning to `CSc1ccc(/C=C2/C(C)=C(CNS(=O)(=O)c3ccc4ccccc4c3)c3cc(F)ccc32)cc1` [Compound 39], the CC50 came to 25.6 ± 5.91 µM.

Consider `CSc1ccc(/C=C2/C(C)=C(CN(Cc3ccccc3)Cc3ccccc3)c3cc(F)ccc32)cc1` [Compound 48], for which the CC50 is > 50 µM.

For the molecule `COc1cc(/C=C2/C(C)=C(CN(CCc3ccccc3)CCc3ccccc3)c3cc(F)ccc32)cc(OC)c1OC` [Compound 60], the CC50 is > 50 µM.

For the next data set, the system named is PC3 prostate cancer cell line. In words: qHTS cell viability screen (Cell Titer Glo), PC3. Particulars: 72 h, PC3 prostate, 72 hours, cell viability Cell Titer Glo; read-out: CC50 PC3. It counts as cell-based.
Turning to `CSc1ccc(/C=C2/C(C)=C(CCNCCN(C)C)c3cc(F)ccc32)cc1` [Compound 10], the CC50 is 4.38 ± 0.25 µM.

For the molecule `CC1=C(CCNCc2ccccc2)c2cc(F)ccc2/C1=C\c1ccc([S+](C)[O-])cc1` (stereo not shown) [Compound 11], the CC50 is 41.5 ± 5 µM.

Take `CC1=C(CCNCc2ccccc2)c2cc(F)ccc2/C1=C\c1ccc(S(C)(=O)=O)cc1` [Compound 12]: the CC50 was 7.02 ± 0.48 µM.

Regarding `CSc1ccc(/C=C2/C(C)=C(CN)c3cc(F)ccc32)cc1` [Compound 16], the CC50 turned out to be 33.6 ± 6.59 µM.

For `COc1cc(/C=C2/C(C)=C(CN)c3cc(F)ccc32)cc(OC)c1OC` [Compound 17], the CC50 is 29.7 ± 4.49 µM.

Take `CSc1ccc(/C=C2/C(C)=C(CNC(=O)Cc3ccccc3)c3cc(F)ccc32)cc1` [Compound 18]: the CC50 is 18.9 ± 9.71 µM.

For `COc1cc(/C=C2/C(C)=C(CNC(C)=O)c3cc(F)ccc32)cc(OC)c1OC` [Compound 28], the CC50 is 23.3 ± 2.61 µM.

In the case of `CCS(=O)(=O)NCC1=C(C)/C(=C/c2ccc(SC)cc2)c2ccc(F)cc21` [Compound 35], the CC50 was found to be 22.6 ± 3.25 µM.

Regarding `CSc1ccc(/C=C2/C(C)=C(CNS(=O)(=O)c3ccccc3)c3cc(F)ccc32)cc1` [Compound 36], the CC50 was determined as 39.6 ± 14.8 µM.

For `CSc1ccc(/C=C2/C(C)=C(CNS(=O)(=O)c3cccc4ccccc34)c3cc(F)ccc32)cc1` [Compound 38], the CC50 is > 50 µM.

Regarding `CSc1ccc(/C=C2/C(C)=C(CNS(=O)(=O)c3ccc4ccccc4c3)c3cc(F)ccc32)cc1` [Compound 39], the CC50 was > 50 µM.

As for `CSc1ccc(/C=C2/C(C)=C(CN(Cc3ccccc3)Cc3ccccc3)c3cc(F)ccc32)cc1` [Compound 48], the CC50 is > 50 µM.

For the molecule `COc1cc(/C=C2/C(C)=C(CN(CCc3ccccc3)CCc3ccccc3)c3cc(F)ccc32)cc(OC)c1OC` [Compound 60], the CC50 is > 50 µM.

The same data set, now with this note: PC3 prostate, 72 hours, cell viability Cell Titer Glo; read-out: CC50 PC3.
As to `COc1cc(/C=C2/C(C)=C(CNS(=O)(=O)c3ccc(C)cc3)c3cc(F)ccc32)cc(OC)c1OC` [Compound 44], the CC50 was > 50 µM.

Consider `COc1cc(/C=C2/C(C)=C(CNS(=O)(=O)c3cccc4ccccc34)c3cc(F)ccc32)cc(OC)c1OC` [Compound 45], for which the CC50 was > 50 µM.

As to `COc1cc(/C=C2/C(C)=C(CNS(=O)(=O)c3cccc4c(N(C)C)cccc34)c3cc(F)ccc32)cc(OC)c1OC` [Compound 47], the CC50 is > 50 µM.

In another data set the test system is MDA-MB-231 breast cancer cell line. Briefly: qHTS cell viability screen (Cell Titer Glo), MDA-MB-231. It counts as cell-based. The following applies: Homo sapiens, MDA-MB-231, 96 h, MDA-MB-231 breast, 96 hours, cell viability Cell Titer Glo; read-out: CC50 MDA-MB-231.
As to `CSc1ccc(/C=C2/C(C)=C(CCNCCN(C)C)c3cc(F)ccc32)cc1` [Compound 10], the CC50 is 3.42 ± 1.5 µM.

Regarding `CC1=C(CCNCc2ccccc2)c2cc(F)ccc2/C1=C\c1ccc([S+](C)[O-])cc1` (stereo not shown) [Compound 11], the CC50 was 48.6 ± 7.85 µM.

With `CC1=C(CCNCc2ccccc2)c2cc(F)ccc2/C1=C\c1ccc(S(C)(=O)=O)cc1` [Compound 12], the CC50 amounted to 4.52 ± 0.77 µM.

Consider `CSc1ccc(/C=C2/C(C)=C(CN)c3cc(F)ccc32)cc1` [Compound 16], for which the 50% cytotoxic concentration (CC50) is 19.3 ± 2.12 µM.

As to `COc1cc(/C=C2/C(C)=C(CN)c3cc(F)ccc32)cc(OC)c1OC` [Compound 17], the CC50 was 15.3 ± 4.44 µM.

Regarding `CSc1ccc(/C=C2/C(C)=C(CNC(=O)Cc3ccccc3)c3cc(F)ccc32)cc1` [Compound 18], the CC50 was found to be 4.06 ± 1.97 µM.

Regarding `COc1cc(/C=C2/C(C)=C(CNC(C)=O)c3cc(F)ccc32)cc(OC)c1OC` [Compound 28], the CC50 worked out at 5.77 ± 1.55 µM.

On to `CCS(=O)(=O)NCC1=C(C)/C(=C/c2ccc(SC)cc2)c2ccc(F)cc21` [Compound 35], for which the CC50 was 11.9 ± 2.61 µM.

For `CSc1ccc(/C=C2/C(C)=C(CNS(=O)(=O)c3ccccc3)c3cc(F)ccc32)cc1` [Compound 36], the CC50 is 17.7 ± 2.1 µM.

On to `CSc1ccc(/C=C2/C(C)=C(CNS(=O)(=O)c3cccc4ccccc34)c3cc(F)ccc32)cc1` [Compound 38], for which the CC50 came out at 38.9 ± 10.3 µM.

Regarding `CSc1ccc(/C=C2/C(C)=C(CNS(=O)(=O)c3ccc4ccccc4c3)c3cc(F)ccc32)cc1` [Compound 39], the CC50 came to 12.9 ± 2.39 µM.

Turning to `CSc1ccc(/C=C2/C(C)=C(CN(Cc3ccccc3)Cc3ccccc3)c3cc(F)ccc32)cc1` [Compound 48], the CC50 is > 50 µM.

With `COc1cc(/C=C2/C(C)=C(CN(CCc3ccccc3)CCc3ccccc3)c3cc(F)ccc32)cc(OC)c1OC` [Compound 60], the CC50 is > 50 µM.

The data set is the same for the next values; noted with them: MDA-MB-231 breast, 96 hours, cell viability Cell Titer Glo; read-out: CC50 MDA-MB-231.
As for `COc1cc(/C=C2/C(C)=C(CNS(=O)(=O)c3ccc(C)cc3)c3cc(F)ccc32)cc(OC)c1OC` [Compound 44], the CC50 is 44.5 ± 25.7 µM.

For the molecule `COc1cc(/C=C2/C(C)=C(CNS(=O)(=O)c3cccc4ccccc34)c3cc(F)ccc32)cc(OC)c1OC` [Compound 45], the CC50 is > 50 µM.

On to `COc1cc(/C=C2/C(C)=C(CNS(=O)(=O)c3cccc4c(N(C)C)cccc34)c3cc(F)ccc32)cc(OC)c1OC` [Compound 47], for which the CC50 was > 50 µM.

Test system in another data set: not given
Assay: not given
Conditions: not given
A word on the melting point: it is the temperature of the solid-liquid transition. With `CC1=C(CCNCc2ccccc2)c2cc(F)ccc2/C1=C\c1ccc(S(C)(=O)=O)cc1` [Compound 12], the melting point was in the range of 96 to 98 °C.

`COc1cc(/C=C2/C(C)=C(CN)c3cc(F)ccc32)cc(OC)c1OC` [Compound 17]: the melting point was in the range of 108 to 110 °C.

On to `COc1cc(/C=C2/C(C)=C(CNC(C)=O)c3cc(F)ccc32)cc(OC)c1OC` [Compound 28], for which the melting point is 183 to 185 °C.

For `CCS(=O)(=O)NCC1=C(C)/C(=C/c2ccc(SC)cc2)c2ccc(F)cc21` [Compound 35], the melting point fell in the range of 131 to 133 °C.

Take `CSc1ccc(/C=C2/C(C)=C(CNS(=O)(=O)c3ccccc3)c3cc(F)ccc32)cc1` [Compound 36]: the melting point was 141 to 143 °C.

Turning to `CSc1ccc(/C=C2/C(C)=C(CNS(=O)(=O)c3cccc4ccccc34)c3cc(F)ccc32)cc1` [Compound 38], the melting point fell in the range of 94 to 95 °C.

For the molecule `CSc1ccc(/C=C2/C(C)=C(CNS(=O)(=O)c3ccc4ccccc4c3)c3cc(F)ccc32)cc1` [Compound 39], the melting point fell in the range of 152 to 154 °C.

These data come from PMC5817852 (The Open Medicinal Chemistry Journal, 2018).
